Converted amounts (≈) assume the structure as drawn.
Experiments:
[1] = test system: HIV-1NL4-3 Nanoluc-sec virus; experiment: microbe, parasite or virus in culture; format: cell-based; details: for EC50: Human immunodeficiency virus 1, NL43, MT4, 72 h, read-out: EC50 (μg/mL) NL4-3; for selective anti-HIV activity (class symbol printed in EC50 column): CC50/EC50 criterion
Description: MT4 cells (1 × 10^5 cells mL^−1) in 96 well plates were infected by HIV-1 NL4-3 Nanoluc-sec at a dose of 50 TCID50/well in the presence of each test compound at various concentrations. On Day 3 post-infection, supernatants were collected and assayed for luciferase activity using the Nano-Glo Luciferase Assay System (Promega, Madison, WI, USA). The antiviral potency was defined as the compound concentration that reduces the luciferase activity by 50% (EC50).

[2] = CytoTox-Glo cytotoxicity assay against MT4 cells; format: cell-based; details: human, 50% cytotoxic concentration, MT-4 cells, read-out: CC50 (μg/mL) MT4
Method: The cytotoxicity of the compound against MT4 cells was assessed using a CytoTox-Glo cytotoxicity assay (Promega, Madison, WI, USA). MT-4 cells were cultured in the presence of various concentrations of each test compound for 3 days, and the 50% cytotoxic concentration (CC50) causing a 50% reduction of cell viability was determined by following the manufacturer’s protocol.

[3] = test system: HIV replication in H9 lymphocytes; design: method as in PMID 31109016, PMID 10021911; details: cited from earlier work
HIV-1 = test system: HIV-1; design: method as in PMID 16177980; details: cited from earlier work
HIV [4] = test system: HIV; design: method as in PMID 10757740; details: XTT-tetrazolium assay; cited from earlier work
[5] = test system: human immunodeficiency virus type-1 integrase; details: cited from earlier work
[6] = test system: HIV replication in C8166 cells; design: method as in PMID 15771893; details: in vitro; cited from earlier work
HIV [7] = details: cited from earlier work

Compound: Cc1cn([C@H]2C[C@H](N=[N+]=[N-])[C@@H](CO)O2)c(=O)[nH]c1=O [AZT, azidothymidine]
- EC50 [1]: 0.0055 ± 0.0018 µg/mL (≈ 0.0206 µM)
- CC50 at 3 days [2]: > 0.1 µg/mL

Compound: COc1ccc2[nH]c3c(O)cc(C=O)cc3c2c1 [Compound 8, clausine I]
- selective anti-HIV activity (class symbol printed in EC50 column) [1]: *- ^d (no selective anti-HIV activity (CC50/EC50 < 5))

Compound: COC(=O)c1cc2c(cc1C)[nH]c1ccccc12 [Compound 1, 2-methyl-9H-carbazole-3-methyl carboxylate]
- TI (CC50/EC50; SI in text) ([1]; CC50 MT4 / EC50 NL4-3): 7.1
- EC50 [1]: 2.4 ± 0.53 µg/mL (≈ 10 µM)
- CC50 at 3 days [2]: 17 ± 2.5 µg/mL (≈ 71 µM)

Compound: CC1(C)C=Cc2c(ccc3c2[nH]c2cc(O)c(C=O)cc23)O1 [Compound 5, clauszoline B]
- selective anti-HIV activity (class symbol printed in EC50 column) [1]: *- ^d (no selective anti-HIV activity (CC50/EC50 < 5))

Compound: COc1cc2c(c3cnccc13)c1ccccc1n2C [5-methoxy-7-methyl-7H-pyrido[4,3-c]carbazole]
- therapeutic index (TI) ([3]; H9 lymphocytes): 503
- EC50, inhibition of HIV replication in H9 lymphocytes [3]: 0.0054 mg/L

Compound: COc1ccc2c(c1)[nH]c1ccc(C(=O)O)cc12 [Compound 3, clausine N]
- selective anti-HIV activity (class symbol printed in EC50 column) [1]: *- ^d (no selective anti-HIV activity (CC50/EC50 < 5))

Compound: CC1(C)C=Cc2c(c(C=O)cc3c2[nH]c2c(O)cccc23)O1 [Compound 4, heptazolicine]
- selective anti-HIV activity (class symbol printed in EC50 column) [1]: *- ^d (no selective anti-HIV activity (CC50/EC50 < 5))

Compound: COc1ccc2c(c1)[nH]c1cc(OC)c(C(=O)O)cc12 [clauszoline-J]
- anti-HIV-1 effects EC50 (HIV-1): 8.2 mg/L
- potential therapeutic index (PTI) (HIV-1): 1.6

Compound: CC(C)=CCc1cc2c(cc1O)[nH]c1ccc(C)cc12 [siamenol]
- HIV-inhibitory activity EC50 (HIV [4]): 2.6 mg/L
- maximum protection (HIV [4]): 50–60%

Compound: Cc1cc2c(c3c1[nH]c1cc(Cl)c(O)cc13)C(=O)N(CCN(C)C)C2=O [8-Chloro-2-[2-(dimethylamino)ethyl]-9-hydroxy-5-methylpyrrolo[3,4-c]carbazole-1,3(2H,6H)-dione]
- strand-transfer inhibitory activity [5]: potent strand-transfer inhibitory activity

Compound: COc1ccc2c(c1)[nH]c1cc(OC)c(C=O)cc12 [3-formyl-2,7-dimethoxycarbazole]
- anti-HIV-1 effects EC50 (HIV-1): 7.4 mg/L
- potential therapeutic index (PTI) (HIV-1): 8.0

Compound: COc1ccc2[nH]c3cc(O)c(C)cc3c2c1CC=C(C)C [glybomine B]
- IC50, inhibition of HIV replication in C8166 cells [6]: 9.73 mg/L

Compound: COc1cc2[nH]c3ccccc3c2cc1C=O [O-methylmukonal]
- anti-HIV-1 effects EC50 (HIV-1): 2.7 mg/L
- potential therapeutic index (PTI) (HIV-1): 56.7

Compound: C[C@@]1(C(=O)O)[C@@H](O)CC[C@]2(C)c3cc4c(cc3CC[C@@H]12)[nH]c1ccccc14 [xiamycin]
- anti-HIV activity (HIV [7]): selective anti-HIV activity

Compound: COc1ccc(OC)c2c1[nH]c1cc(O)c(C)cc12 [Compound 2, 5,8-dimethoxy-3-methyl-9H-carbazol-2-ol]
- EC50 [1]: 3.7 µg/mL (≈ 14.4 µM)
- CC50 at 3 days [2]: 15.2 ± 3.1 µg/mL (≈ 59.1 µM)

Compound: clausine-O [Compound 6]
- selective anti-HIV activity (class symbol printed in EC50 column) [1]: *- ^d (no selective anti-HIV activity (CC50/EC50 < 5))

Compound: Cc1cc2c(cc1O)[nH]c1ccc3c(c12)C=CC(C)(C)O3 [glycoborinine]
- IC50, inhibition of HIV replication in C8166 cells [6]: 4.47 mg/L

Compound: O=Cc1ccc2[nH]c3cc(O)ccc3c2c1 [Compound 7, 7-dihydroxy-9H-carbazole-3-carboxaldehyde]
- EC50 [1]: > 25 µg/mL
- CC50 at 3 days [2]: > 25 µg/mL

Reference: PMC6983056, “Carbazole Alkaloids from Clausena anisum-olens: Isolation, Characterization, and Anti-HIV Evaluation” (Molecules, 2019)
